Data published in paper PMC3821218 (Structure (London, England : 1993), 2013).
Marks after values point to notes of the source that are not given here.

Key:
RR468 [1] = target: T1, RR468 (Thermotoga maritima, UniProt Q9WYT9, V13P/L14I/I17M/N21V); assay: autophosphorylation from […]acetyl phosphate; assay type: biochemical; details: labelled compound; 5 mM MgCl2, pH 8.0, room temperature, 1 hour
RR468 [2] = target: T1, RR468; details: free RR468*; phosphomimetic; NaF/BeSO4/MgCl2, pH 4.6
crystal structure = target: the molecule itself; assay: crystal structure

CC(=O)OP(=O)(O)O [acetyl-phosphate]
autophosphorylation from [32P]acetyl phosphate (RR468 [1]): RR468* autophosphorylates more poorly than RR468 using this method

[F][Be-]([F])[F] [BeF3^−]
X-ray crystal structure, 1.80 Å (RR468 [2]): the free forms of HK853* (HKf*) bound to ADP and RR468* (RRf*) bound to BeF3^−

B1: HK853, wild type, cytoplasmic portion (enzyme, Thermotoga maritima)
chain: VENVTESKELERLKRIDRMKTEFIANISHELRTPLTAIKAYAETIYNSLGELDLSTLKEFLEVIIDQSNHLENLLNELLDFSRLERKSLQINREKVDLCDLVESAVNAIKEFASSHNVNVLFESNVPCPVEAYIDPTRIRQVLLNLLNNGVKYSKKDAPDKYVKVILDEKDGGVLIIVEDNGIGIPDHAKDRIFEQFYRVDSSLTYEVPGTGLGLAITKEIVELHGGRIWVESEVGKGSRFFVWIPKDRAGEDNRQDN
stoichiometry N (crystal structure): 2
